Like-named read-outs stand apart in the source and are kept apart here.
Tests used:
[1] = system: osteoclast differentiation; experiment: Inhibitory effects on osteoclast differentiation (co-culture of bone marrow cells with osteoblast, TRAP staining); type: cell-based, mice; settings: co-culture of bone marrow cells and osteoblast, 7 days, TRAP-positive osteoclasts versus controls; for inhibition at 1 µM: Mus musculus, Osteoclast, 168 h, read-out: % inhibitory activity on osteoclastogenesis
Outline: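 Bone marrow cells from 6–8-week male ddY mice co-cultured with neonatal ICR mouse calvarial osteoblasts in α-MEM/FBS with dexamethasone (10^−7M) and vitamin D3 (10^−8M) for 7 days, compound and medium renewed every 2–3 days. TRAP-positive cells with ≥3 nuclei counted; inhibition given as percent of control.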

osteoblast = experiment: Effect on bone formation (osteoblast nodule mineralization, Alizarin red S); type: cell-based, ICR mice; settings: calvarial osteoblast in osteogenic differentiation medium
Protocol: The osteoblast, treated in this experiment, was prepared from the osteoblast as prepared in the above.
The osteoblast, isolated from sequential enzymatic treatment of calvariae from neonated ICR mice, was cultured in α-MEM medium containing 10% FBS for 4˜5 days. The osteoblast was also cultured for 24 hr after seeding the cells on a 12 well plate (10^5 cell/well), and medium was exchanged with the osteogenic differentiation medium containing 10 mM β-glycerophosphate and 50 μg/ml ascorbic acid.
The test substances at the concentration of 0.1 uM and 0.1 nM were added to the above medium for evaluating the effect promoting bone formation. The differentiation medium containing the test substances was exchanged every 3 or 4 days for 14 to 21 days until confirming the nodule mineralization.
The cell was rinsed twice with distilled water, and fixed by the 10% formalin solutions for 30 minutes. Alizarin red S and Von-kossa Solution were treated on the plate for measuring deposited calcium and phosphate in cell matrix, and the activity of the test substances on the bone formation was analyzed by determining stained area.
Additionally, for the purpose of estimating quantitative Arizarin red S in cell matrix, stained Arizarin red S was extracted by treating 10 mM sodium phosphate solution (pH 7.0), containing 10% cetylpyridinium chloride, for 15˜30 minutes in the shaking incubator, and then the amount of the deposited calcium was estimated by calculating the absorbance of the extracted Arizarin red S at 564 nm. […]

cells = experiment: Cytotoxicity test (MTT); type: cell-based; settings: 10^−6M, 72 hrs, compared with the control group
Outline: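 Benzamidine derivatives were checked for cytotoxicity with an MTT assay. Test substances were diluted in a suitable solvent to 10^−2M. Cells were seeded at 1×10^4 cell/100 μL per well in 96-well microplates and grown for 72 hrs. During the final 4 hrs, 25 μL of MTT (2 mg/mL in PBS) was added. Plates were then centrifuged, the medium removed, formazan dissolved in 100 μL DMSO, and absorbance read at 540 nm.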

SMILES | melting point [°C] | inhibition at 1 µM ([1]; 1 μm) [%] | bone forming activity (%) (osteoblast; 0.1 nM) | bone forming activity (%) (osteoblast; 0.1 μM) | Survival rates of the cells (cells; MC3T3-E1 cells) [%] | Survival rates of the cells (cells; ST2 cells) [%] | % inhibitory activity on osteoclastogenesis ([1]; 1 μm) [%] | inhibition at 1 µM ([1]; 1 m) [%]
Cc1sc(-c2cccnc2)nc1-c1ccc(OCCCCCOc2ccc(C(=N)NO)cc2)cc1 [Example 13, N-hydroxy-4-(5-[4-(5-methyl-2-pyridin-3-yl-1,3-thiazol-4-yl)phenoxy]pentoxy)-benzamidine] | 138 to 150 | 73.5 |  |  |  |  |  | 
CC(C)c1nc(-c2ccc(OCCCCCOc3ccc(C(=N)NO)cc3)cc2)c(CC2CCCC2)s1 [Example 47, N-hydroxy-4-(5-[4-(5-cyclopentylnnethyl-2-isopropyl-1,3-thiazol-4-yl)phenoxy]pentoxy)-benzamidine] |  |  | 9.4 | 11.31 | 54.2 | 24.0 | 90.0 | 
CCCN(CCC)c1nc(-c2ccc(OCCCCCOc3ccc(C(=N)NO)cc3)cc2)c(CC)s1 [Example 138, N-hydroxy-4-(5-[4-(2-dipropylamino-5-ethyl-1,3-thiazol-4-yl)phenoxy]pentoxy)-benzamidine] |  |  | 8.81 | 6.32 |  |  |  | 91

Source: patent US8178688B2, “Benzamidine derivatives, process for the preparation thereof and pharmaceutical composition comprising the same” (Dong Wha Pharmaceutical Co., Ltd., priority 2004, dated 2012)
